This passage reports IC50 results from BindingDB's records for doi:10.3109/14756366.2012.757603 (Sakarya University, 2014).

For one assay, the target named is Carbonic anhydrase 2 (Homo sapiens, UniProt P00918). As to the kind of experiment: In Vitro Inhibition Assay. As for the experimental part: (§1) For the inhibition studies of sulfonamide, different concentrations of these compounds were added to the enzyme. Activity percentage values of CA for different concentrations of each sulfonamide were determined by regression analysis usingMicrosoft Office 2000 Excel (New York, NY). CA enzyme activity without a sulfonamide solution was accepted to be 100%.

In the next assay the target is Carbonic anhydrase 1 (Homo sapiens, UniProt P00915). Nature of the assay: In Vitro Inhibition Assay. As for the experimental part: as §1

Structures are written as SMILES.

Chain of Carbonic anhydrase 1 (P00915 whole entry): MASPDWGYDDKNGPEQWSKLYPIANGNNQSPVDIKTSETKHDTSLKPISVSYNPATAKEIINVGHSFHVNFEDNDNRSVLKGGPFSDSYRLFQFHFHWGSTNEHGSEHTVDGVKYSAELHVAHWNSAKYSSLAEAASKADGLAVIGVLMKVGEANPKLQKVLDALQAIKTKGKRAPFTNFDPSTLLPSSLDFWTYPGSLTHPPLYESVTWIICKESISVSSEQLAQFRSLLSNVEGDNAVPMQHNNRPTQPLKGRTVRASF

The IC50 is the concentration at which inhibition is half-maximal. Lower therefore signals greater potency in that assay. `CN1C(=O)C(=CNc2ccc(S(N)(=O)=O)cc2)C(=O)N(C)C1=O` [4-((1,3-Dimethyl-2,4,6-trioxo-tetrahydropyrimidin-5(6H)-ylidene)methylamino)benzene-sulfonamide (2e)]: the IC50 against Carbonic anhydrase 2 was determined as 2.52 µM; against Carbonic anhydrase 1 it was 5.2 µM.
For `NS(=O)(=O)c1ccc(NC=C2C(=O)c3ccccc3C2=O)cc1` [4-((1,3-Dioxo-1H-inden-2(3H)-ylidene)methylamino)benzene-sulfonamide (2g)], the IC50 on Carbonic anhydrase 2 came to 3.36 µM; at Carbonic anhydrase 1, 3.19 µM.
Regarding `CC1(C)OC(=O)C(=CNc2ccc(S(N)(=O)=O)cc2)C(=O)O1` [4-((2,2-Dimethyl-4,6-dioxo-1,3-dioxan-5-ylidene)methylamino)benzene-sulfonamide (2c)], the figures for the IC50 at Carbonic anhydrase 2 and against Carbonic anhydrase 1 were 18.6 µM and 6.56 µM, respectively.
The like results for `NS(=O)(=O)c1ccc(NC=C2C(=O)NC(=O)NC2=O)cc1` [4-((2,4,6-Trioxo-tetrahydropyrimidin-5(6H)-ylidene)methylamino)benzene-sulfonamide (2f)] were, in that order, 9.92 µM and 10.9 µM.
The like results for `NS(=O)(=O)c1ccc(NC=C2C(=O)CCC2=O)cc1` [4-((2,5-Dioxocyclopentylidene)methylamino)benzenesulfonamide (2h)] were, in that order, 3.36 µM and 4.8 µM.
The like results for `NS(=O)(=O)c1ccc(NC=C2C(=O)CCCC2=O)cc1` [4-((2,6-Dioxocyclohexylidene)methylamino)benzenesulfonamide (2a)] were, in that order, 4.93 µM and 4.25 µM.
Take `CC1(C)CC(=O)C(=CNc2ccc(S(N)(=O)=O)cc2)C(=O)C1` [4-((4,4-Dimethyl-2,6-dioxocyclohexylidene)methylamino)benzene-sulfonamide (2b)]: the figures for the IC50 on Carbonic anhydrase 2 and against Carbonic anhydrase 1 were 6.41 µM and 2.12 µM, respectively.
The like results for `NS(=O)(=O)c1ccc(NC=C2C(=O)CC(c3ccco3)CC2=O)cc1` (stereo unspecified) [4-((4-(Furan-2-yl)-2,6-dioxocyclohexylidene)methylamino)benzenesulfonamide (2d)] were, in that order, 7.21 µM and 8.61 µM.
